Assay results published in patent publication US11214803B2, “Modulators of YAP1 expression” (Ionis Pharmaceuticals, Inc., priority 2019, dated 2022).
Strand notation (5' to 3'): a small letter for the sugar, then the base; units joined by * are phosphorothioate-linked, units joined directly phosphodiester-linked; [ ] holds rarer units or linkages, { } end groups; capitals alone tell only the bases. e = 2'-O-(2-methoxyethyl) (MOE); k = constrained ethyl (cEt); [5mC] = 5-methylcytosine; d = 2'-deoxy (DNA); m = 2'-O-methyl

tested on: Yap1 mRNA; experiment: Antisense inhibition of human Yap1 in SNU-449 cells by modified oligonucleotides, single dose (Example 5, RTS36584); type: cell-based; settings: Table 39; SNU-449 cells, 10,000 cells per well, free uptake, 2,000 nM oligonucleotide, approx. 48 hours; RTS36584; normalized to RIBOGREEN; Yap1 mRNA relative to untreated control
How it was run: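 Each modified oligonucleotide is applied by free uptake to SNU-449 cultures at 2,000 nM, and total RNA is harvested around 48 h later. Yap1 transcript, quantified with the RTS36584 set and corrected for RIBOGREEN RNA content, is given as % UTC. Asterisks mark sequences overlapping the amplicon.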

For “1198389 (kG*dG*dT*dA*dT*dA*dA*d[5mC]*dT*dG*dG*kG*e[5mC]*kA*eA*kA; antisense) [Compound 1198389]”, the “YAP1 (% UTC)” value was 28 % UTC.

same assay, conditions: Table 40 (separate experiment); SNU-449 cells, 10,000 cells per well, free uptake, 2,000 nM oligonucleotide, approx. 48 hours; RTS36584; normalized to RIBOGREEN; Yap1 mRNA relative to untreated control

First: 1198731 (kT*e[5mC]*kT*dA*dT*dA*dT*dT*dA*dG*dA*dG*eT*eA*kT*kG; antisense) [Compound 1198731]
Second: 1198428 (kG*dA*d[5mC]*dA*dA*d[5mC]*dT*d[5mC]*dT*dT*dA*kT*eA*kT*eG*kG; antisense) [Compound 1198428]
The “YAP1 (% UTC)” value of the first is lower: 59 % UTC for the first, 62 % UTC for the second.

Going from “1198784 (antisense kT*eA*kT*dG*dT*dA*dA*dT*dA*dT*dT*dG*e[5mC]*eA*kA*kT) [Compound 1198784]” to “1198443 (kT*dT*dA*dA*dA*dG*dT*dG*dT*dA*dT*kG*eT*k[5mC]*eA*kG; antisense) [Compound 1198443]”, the “YAP1 (% UTC)” value falls from 94 % UTC to 39 % UTC.

“1198766 (kT*e[5mC]*kA*dG*dA*dT*dT*dT*dA*dG*dG*dA*eT*eG*k[5mC]*kA; antisense) [Compound 1198766]” was tested, and the “YAP1 (% UTC)” value was 19 % UTC.

same assay, conditions: Table 41; SNU-449 cells, 10,000 cells per well, free uptake, 2,000 nM modified oligonucleotide, approximately 48 hours; RTS36584; normalized to RIBOGREEN; Yap1 mRNA relative to untreated control cells

Compared with “1198692 (antisense kT*kG*dT*dA*dA*dT*dA*dT*dT*dG*d[5mC]*dA*kA*eT*k[5mC]*eT) [Compound 1198692]”, “1198658 (kA*kA*dG*d[5mC]*dA*d[5mC]*dT*dT*dT*dT*dA*d[5mC]*kA*eT*kT*eA; antisense) [Compound 1198658]” is lower in “YAP1 (% UTC)” value: 120 % UTC for the first, 62 % UTC for the second.

Compared with “1198634 (kT*kG*dG*dA*dA*dA*dT*dT*dG*dT*d[5mC]*dT*k[5mC]*eA*kT*eG; antisense) [Compound 1198634]”, “1198738 (kA*e[5mC]*kT*dG*dA*dG*dG*dT*dA*dT*dA*dA*e[5mC]*eT*kG*kG; antisense) [Compound 1198738]” is higher in “YAP1 (% UTC)” value: 34 % UTC for the first, 38 % UTC for the second.

Compared with “1198687 (antisense kA*kT*dT*dG*d[5mC]*dA*dA*dT*d[5mC]*dT*dG*dT*k[5mC]*eT*kG*eA) [Compound 1198687]”, “1198674 (antisense kA*kG*dA*dT*dT*dT*dA*dG*dG*dA*dT*dG*k[5mC]*eA*kT*eG) [Compound 1198674]” is lower in “YAP1 (% UTC)” value: 55 % UTC for the first, 21 % UTC for the second.

same assay, conditions: Table 42 (separate experiment); SNU-449 cells, 10,000 cells per well, free uptake, 2,000 nM modified oligonucleotide, approximately 48 hours; RTS36584; normalized to RIBOGREEN; Yap1 mRNA relative to untreated control cells

First: 1198697 (antisense kA*kG*dT*dG*dT*dA*dT*dG*dT*d[5mC]*dA*dG*kA*eA*kG*eA) [Compound 1198697]
Second: 1198237 (AGTGCTTTGGAAGATC; chemistry not fully specified) [Compound 1198237]
The “YAP1 (% UTC)” value of the first is lower: 12 % UTC for the first, 51 % UTC for the second.

With “1198233 (k[5mC]*kT*dT*dT*dG*dG*dA*dA*dG*dA*dT*e[5mC]*eT*eG*kA*kA) [Compound 1198233]” the “YAP1 (% UTC)” value was 49 % UTC.

same assay, conditions: Table 43 experiment; SNU-449 cells, 10,000 cells per well, free uptake, 2,000 nM, approximately 48 hours; RTS36584; Yap1 mRNA normalized to RIBOGREEN, relative to untreated control cells

Compared with “1198242 (kA*kT*dT*dT*dA*dG*dG*dA*dT*dG*d[5mC]*eA*eT*eG*kG*kT; antisense) [Compound 1198242]”, “1198220 (kA*kA*d[5mC]*dA*d[5mC]*dT*dG*dA*dG*dG*dT*eA*eT*eA*kA*k[5mC]; antisense) [Compound 1198220]” is higher in “YAP1 (% UTC)” value: 47 % UTC for the first, 89 % UTC for the second.

Going from “1198265 (kT*kT*dT*dA*dT*dG*dT*dA*dA*dT*dA*eT*eT*eG*k[5mC]*kA; antisense) [Compound 1198265]” to “1198270 (kT*kA*dA*dA*dG*dT*dG*dT*dA*dT*dG*eT*e[5mC]*eA*kG*kA; antisense) [Compound 1198270]”, the “YAP1 (% UTC)” value falls from 111 % UTC to 52 % UTC.

First: 1198483 (antisense k[5mC]*kA*d[5mC]*dT*dT*dT*dT*dA*d[5mC]*dA*dT*eT*kA*eG*kG*eA) [Compound 1198483]
Second: 1198459 (antisense kA*kA*dA*dT*dT*dG*dT*d[5mC]*dT*d[5mC]*dA*eT*kG*e[5mC]*k[5mC]*eT) [Compound 1198459]
The “YAP1 (% UTC)” value of the first is higher: 31 % UTC for the first, 28 % UTC for the second.

same assay, conditions: Table 44 experiment; SNU-449 cells, 10,000 cells per well, free uptake, 2,000 nM, approximately 48 hours; RTS36584; Yap1 mRNA normalized to RIBOGREEN, relative to untreated control cells

First: 1198494 (antisense kG*kT*dG*d[5mC]*dT*dT*dT*dG*dG*dA*dA*eG*kA*eT*k[5mC]*eT) [Compound 1198494]
Second: 1198901 (kT*kA*dG*dA*dG*dT*dA*dT*dG*dT*dG*kG*d[5mC]*kA*dA*kT; antisense) [Compound 1198901]
The “YAP1 (% UTC)” value of the first is lower: 15 % UTC for the first, 28 % UTC for the second.

Going from “1198535 (kA*kA*dG*dT*dA*dA*dG*dG*dT*dT*dT*e[5mC]*k[5mC]*e[5mC]*kA*eG; antisense) [Compound 1198535]” to “1198478 (antisense kA*kA*d[5mC]*dA*d[5mC]*dT*dG*dA*dG*dG*dT*eA*kT*eA*kA*e[5mC]) [Compound 1198478]”, the “YAP1 (% UTC)” value rises from 35 % UTC to 60 % UTC.

In the case of “1198486 (antisense kA*kA*dG*d[5mC]*dA*d[5mC]*dT*dT*dT*dT*dA*e[5mC]*kA*eT*kT*eA) [Compound 1198486]”, the “YAP1 (% UTC)” value is reported as 39 % UTC.

same assay, conditions: Table 45; Yap1 mRNA as percent of untreated control, SNU-449 cells, single dose

First: 1198926 (kG*k[5mC]*dT*dT*dT*dG*dG*dA*dA*dG*dA*kT*d[5mC]*kT*dG*kA; antisense) [Compound 1198926]
Second: 1198908 (kT*kA*dT*dA*dA*d[5mC]*dT*dG*dG*dG*d[5mC]*kA*dA*kA*dT*kT; antisense) [Compound 1198908]
The “YAP1 (% UTC)” value of the first is lower: 45 % UTC for the first, 124 % UTC for the second.

Compared with “1198970 (kT*kA*dA*dG*dT*dA*dA*dG*dG*dT*dT*kT*d[5mC]*k[5mC]*d[5mC]*kA; antisense) [Compound 1198970]”, “1198961 (kA*kA*dA*dG*dT*dG*dT*dA*dT*dG*dT*k[5mC]*dA*kG*dA*kA; antisense) [Compound 1198961]” is lower in “YAP1 (% UTC)” value: 29 % UTC for the first, 12 % UTC for the second.

In the case of “1198918 (kG*k[5mC]*dA*d[5mC]*dT*dT*dT*dT*dA*d[5mC]*dA*kT*dT*kA*dG*kG) [Compound 1198918]”, the “YAP1 (% UTC)” value is reported as 27 % UTC.

same assay, conditions: Table 46; Yap1 mRNA as percent of untreated control, SNU-449 cells, single dose

Compared with “1198825 (kG*kA*dG*dG*dT*dA*dT*dA*dA*d[5mC]*dT*kG*eG*kG*e[5mC]*kA; antisense) [Compound 1198825]”, “1198857 (kT*k[5mC]*dT*dT*dA*dT*dA*dT*dG*dG*dT*kT*eT*kT*eG*kT; antisense) [Compound 1198857]” is lower in “YAP1 (% UT)” value: 64 % UT for the first, 19 % UT for the second.

same assay, conditions: Table 48; Yap1 mRNA level relative to untreated control; modified oligonucleotides targeting SEQ ID NO.: 1 and 2

Going from “1198317 (kT*kT*kG*dG*dA*dA*dG*dA*dT*d[5mC]*dT*dG*kA*eA*kA*e[5mC]; antisense) [Compound 1198317]” to “1009395 (k[5mC]*kT*kG*dA*dG*dG*dT*dA*dT*dA*dA*d[5mC]*dT*kG*kG*kG; antisense) [Compound 1009395]”, the “YAP1 (% UT)” value falls from 74 % UT to 43 % UT.

Compared with “1197218 (antisense kT*kT*kT*dA*dA*dA*dG*dT*dG*dT*dA*dT*dG*kT*k[5mC]*kA) [Compound 1197218]”, “1197201 (antisense kT*k[5mC]*kT*dT*dA*dT*dA*dT*dG*dG*dT*dT*dT*kT*kG*kT) [Compound 1197201]” is higher in “YAP1 (% UT)” value: 29 % UT for the first, 46 % UT for the second.

same assay, conditions: Table 49; Yap1 mRNA level relative to untreated control; modified oligonucleotides targeting SEQ ID NO.: 1 and 2

Going from “1198584 (antisense TTAGGATGCATGGTTT; chemistry not fully specified) [Compound 1198584]” to “1198551 (antisense kA*kG*kT*dA*dT*dG*dT*dG*dG*d[5mC]*dA*dA*kT*kA*kA*eT) [Compound 1198551]”, the “YAP1 (% UT)” value falls from 37 % UT to 34 % UT.

same assay, conditions: Table 51; Yap1 mRNA remaining as percent of untreated control (UT), SNU-449 cells, single dose

First: 1197303 (k[5mC]*kT*kT*dA*mU*dA*dT*dG*dG*dT*dT*dT*dT*kG*kT*kG; antisense) [Compound 1197303]
Second: 1197271 (kT*kT*kT*dA*mA*dA*dG*dT*dG*dT*dA*dT*dG*kT*k[5mC]*kA) [Compound 1197271]
The “YAP1 (% UT)” value of the first is higher: 72 % UT for the first, 12 % UT for the second.

same assay, conditions: Table 52; Yap1 mRNA, modified oligonucleotides targeting SEQ ID NO: 1 and 2

Compared with “1200806 (kT*kG*kA*dG*dG*mU*dA*dT*dA*dA*d[5mC]*dT*dG*kG*kG*k[5mC]; antisense) [Compound 1200806]”, “1200790 (kT*kG*kG*dA*dA*mA*dT*dT*dG*dT*d[5mC]*dT*d[5mC]*kA*kT*kG; antisense) [Compound 1200790]” is higher in “YAP1 (% UT)” value: 24 % UT for the first, 33 % UT for the second.

First: 1200824 (kG*k[5mC]*kT*dT*dT*mG*dG*dA*dA*dG*dA*dT*d[5mC]*kT*kG*kA; antisense) [Compound 1200824]
Second: 1200865 (kT*kA*kA*dG*dG*mU*dT*dT*d[5mC]*d[5mC]*d[5mC]*dA*dG*kA*kT*kT; antisense) [Compound 1200865]
The “YAP1 (% UT)” value of the first is lower: 43 % UT for the first, 54 % UT for the second.

same assay, conditions: Yap1 mRNA, percent of untreated control; modified oligonucleotides targeting SEQ ID NO: 1 and 2; Table 47

Compared with “1197212 (antisense kT*kT*kT*dA*dT*dG*dT*dA*dA*dT*dA*dT*dT*kG*k[5mC]*kA) [Compound 1197212]”, “1096369 (antisense kG*kT*kG*d[5mC]*dT*dT*dT*dG*dG*dA*dA*dG*dA*kT*k[5mC]*kT) [Compound 1096369]” is lower in “YAP1 (% UT)” value: 55 % UT for the first, 45 % UT for the second.

Going from “1074798 (kG*k[5mC]*kT*dT*dT*dG*dG*dA*dA*dG*dA*dT*d[5mC]*kT*kG*kA) [Compound 1074798]” to “1197220 (antisense kT*kA*kA*dG*dG*dT*dT*dT*d[5mC]*d[5mC]*d[5mC]*dA*dG*kA*kT*kT) [Compound 1197220]”, the “YAP1 (% UT)” value rises from 19 % UT to 32 % UT.
